The text below walks through data of PMC9154192 (PLoS Biology, 2022).

Each structure is given as a SMILES string. Values after ≈ are worked out from the molar mass of the structure shown.

As a reminder, the MIC is the lowest concentration found to suppress growth. A high value points to a need for much substance.

In this test the test system is M. bovis BCG strains. Briefly: organism not typed. The class given is cell-based, Mycobacterium bovis BCG.

As to `NNC(=O)c1ccncc1` [INH, isoniazid, reference compound], the minimal inhibitory concentration (MIC) was 0.2 µg/mL (≈ 1.46 µM).
